Assay [1] has as its system EP 49/206 cells. Kind of assay: Insulin secretion in static incubation, glucose dose response with or without 5-thioglucose. Type of assay: cell-based, rat. Particulars: 2 mM 5-thioglucose, + IBMX, 2 h. How it is done:
(§1) Cells were plated in 12-well dishes (Corning Glass Works, Corning, N.Y.) at a density of approximately 250,000 cells per well and allowed to grow for 48 hours. Cells were washed twice for 20 minutes each in HEPES/bicarbonate buffered salt solution (HBBSS; 114 mM NaCl, 4.7 mM KCl, 1.21 mM KH2 PO4, 1.16 mM MgSO4, 25.5 mM NaHCO3, 2.5 mM CaCl2, 10 mM Hepes) with 0.1% bovine serum albumin but without glucose. Secretion studies were then conducted by incubating cells in HBBSS containing 0.5% BSA and with glucose in a range of concentrations from 0 to 20 mM for two hours. These experiments were conducted in the presence and absence of 2 mM 5-thioglucose (Sigma, St. Louis, Mo.) and in the presence or absence of 100 μM isobutylmethylxanthine (IBMX). Following incubation, media was collected and assayed for insulin by radioimmunoassay with the DPC method, as described above. Secretion was normalized for cell number by measuring total protein in each well by the method of Bradford (1976), using the kit from Bio-Rad, Hercules, Calif.

Assay [2] concerns R5C.I-17 cells. Described as above. The assay is classed as cell-based, rat. How it is done:
as §1

Assay [3] concerns EP 40/110 cells. Described as above. Type of assay: cell-based, rat. Conditions: 2 mM 5-thioglucose, + IBMX, 2 h. How it is done: as §1
The test system of assay [4] is RIN 1046-38 cells. The description is as above. The assay is classed as cell-based. Particulars: Rattus norvegicus; 2 mM 5-thioglucose, 0.25 mM glucose + 100 μM IBMX, 2 h; read-out: reduction in insulin secretion. How it is done: as §1
The subject of assay [5] is Hexokinases I-III (HK1-111), low Km hexokinases. Conditions: HK1-111, Table 1, cited from earlier work.
For assay [6], the system named is Glucokinase (GK). Conditions: cited from earlier work.

Read-outs that look alike come from different tables or passages of the source.

The values that follow come from patent publication US6194176A, “Recombinant expression of proteins from secretory cell lines” (priority 1997, dated 2001).

With `O=C[C@H](O)[C@@H](O)[C@H](O)[C@H](S)CO` [5-thioglucose], the “effect on insulin secretion response to 0.05 and 0.25 mM glucose” value in assay [1] was “completely eliminated”. Further, the “maximal fold-response of insulin secretion” value in assay [2] (2 mM 5-thioglucose present, seen at 1 mM glucose + IBMX (5.7-fold without 5-thioglucose)) is 3.9 fold. In addition, the inhibition at 2000 µM in assay [2] (Rattus norvegicus, 2 mM 5-thioglucose, no secretagogues or IBMX alone, 2 h, read-out: suppression of basal insulin secretion) was approximately 50%; in assay [3] (Rattus norvegicus, read-out: reduction of insulin secretion response to 0.5 mM glucose) it was 70%; in assay [4] it was 50%. Also, the “effect on insulin secretion response to 0.25 mM glucose” value in assay [3] is on record as “completely eliminated”.

For `Nc1ncnc2c1ncn2[C@@H]1O[C@H](COP(=O)(O)OP(=O)(O)OP(=O)(O)O)[C@@H](O)[C@H]1O` [ATP], the Km in assay [5] (read-out: Km ATP) was 200 to 500 µM; in assay [6] (GK of Table 1, read-out: Km ATP), 500 µM.

Consider `O=P(O)(O)OC[C@H]1OC(O)[C@H](O)[C@@H](O)[C@@H]1O` (some centres unmarked) [G-6-P, glucose-6-phosphate], for which the Ki in assay [5] (read-out: Ki G-6-P) was 0.2 to 0.9 mM; in assay [6] (GK of Table 1, read-out: Ki G-6-P) it was 60 mM. The “glucose-6-phosphate concentration required for appreciable inhibition” value in assay [6] was more than 10 mM.

For `OC[C@H]1OC(O)[C@H](O)[C@@H](O)[C@@H]1O` (some centres unmarked) [glucose], the Km was 20 to 130 µM in assay [5] (read-out: Km glucose); 5000 to 12000 µM in assay [6] (GK of Table 1, read-out: Km glucose); 6000 to 8000 µM in assay [6] (approximate, read-out: Km for glucose).

What is called Km is the substrate concentration at which the rate is half of its maximum. The term Ki denotes a dissociation constant, usually derived from enzyme kinetics or from competition with a known ligand.
